Results: patent publication US20250376711A1, “COMPOUND-DIAGNOSTIC MARKER FOR UTERINE BODY CANCER, METHOD FOR DETECTING ENZYMATIC ACTIVITY, METHOD FOR DIAGNOSIS OF UTERINE BODY CANCER, KIT COMPRISING THE COMPOUND, USES OF THE COMPOUND AND METHOD FOR THE TREATMENT OF UTERINE BODY CANCER” (URTESTE S.A., priority 2022, published 2025)
“And” between values parts separate entries of the source, which are not always exact repeats. Equal entries are not always repeated. Starred links: 1 amine or outer side, 2 acyl side, 3 side chain; linkers in the order of their positions; H or OH if unused. Non-standard residues stand in square brackets, D forms with d. No end group written: not given here. Benzoyl(5-NH,2-NO2) = O=C(c1cc(N[*:1])ccc1[N+](=O)[O-])[*:2]; 2Abz = Nc1ccccc1C(=O)O

Legend:
Format in all cases: biochemical, human
[1] = test system: enzymatic activity in urine from patients with liver cancer; assay: Selectivity of the cleavage: urine, liver cancer; settings: samples from patients with liver cancer, mixture of 20 samples
Text: (§1) Arabic numerals indicate the numbers of given cancer types. The samples tested for each type of cancer were derived from 20 different patients for each of the tested cancers. The results are mean values for given cancer types.
(§2) The activity of the novel compounds according to the invention was studied in a group of 20 subjects diagnosed with uterine body cancer using the representative compound according to the invention. […] The remaining compounds according to the invention are characterized by the analogous mechanism of action. For this purpose, the representative compound according to the invention, ABZ^1-Pro^2-Arg^3-Thr^4-Ile^5-ANB^6-NH2, was dissolved in dimethyl sulfoxide (at a concentration of 0.5 mg/mL) and then 50 μL of the solution was mixed with 120 μL of a buffer (200 mM Tris-HCl, pH 8.0) and 80 μL of urine from a subject suffering from uterine body cancer. The measurement was performed on a 96-well plate designed for measuring absorbance and each sample was analysed in triplicate at the temperature of 37° C. The duration of the measurement was 60 minutes. During the measurement, the wavelength characteristic for the chromophore (ANB-NH2) being released was monitored at the wavelength 405 nm (range 380-430 nm).
(§3) Furthermore, the dependence of the cleavage selectivity of the substrate, i.e. the compound according to the invention, on the cancer being examined, was studied. […]

[2] = test system: enzyme(s) in the studied material (urine); assay: Dependence of the hydrolysis level of the substrate on pH; settings: FIG. 4
Procedure: Furthermore, measurements concerning the dependence of the proteolytic activity of the representative compound according to the invention on the reaction pH were performed.

[3] = test system: enzymatic activity in samples from patients with bladder cancer; assay: Selectivity of the cleavage: urine, bladder cancer; settings: mixture of 20 samples
Text: as §1, §2, §3

[4] = test system: enzymatic activity in urine from patients with stomach cancer; assay: Selectivity of the cleavage: urine, stomach cancer; settings: samples from patients with stomach cancer, mixture of 20 samples
Text: as §1, §2, §3

[5] = test system: enzymatic (proteolytic) activity in urine from subjects diagnosed with uterine body cancer; assay: Hydrolysis of the chromogenic substrate in urine from subjects with uterine body cancer (absorbance at 405 nm); set-up: Results of absorbance analysis (rate of hydrolysis of the substrate): unit not given here; settings: for Results of absorbance analysis (rate of hydrolysis of the substrate): 405 nm, 37° C., 60 minutes, Tris-HCl pH 8.0, triplicate
Procedure: as §2
The observed magnitude of increase in absorbance in time is different for each of the examined samples. […] Such a result may be due to the difference in the activity as well as the amount of enzymes responsible for the enzymatic cleavage (proteolysis). […] The result indicates the […] of proteolytic enzymes specific/characteristic of uterine body cancer.

[6] = test system: enzymatic activity in urine from patients with lung cancer; assay: Selectivity of the cleavage: urine, lung cancer; settings: samples from patients with lung cancer, mixture of 20 samples
Text: as §1, §2, §3

[7] = test system: enzymatic activity in urine from patients with kidney cancer; assay: Selectivity of the cleavage: urine, kidney cancer; settings: samples from patients with kidney cancer, mixture of 20 samples
Text: as §1, §2, §3

[8] = test system: enzymatic activity in urine from patients with ovary cancer; assay: Selectivity of the cleavage: urine, ovary cancer; settings: samples from patients with ovary cancer, mixture of 20 samples
Text: as §1, §2, §3

[9] = test system: enzymatic (proteolytic) activity in urine from healthy subjects; assay: Hydrolysis of the chromogenic substrate in urine from healthy subjects (absorbance at 405 nm); settings: for Results of absorbance analysis (rate of hydrolysis of the substrate): 405 nm, 37° C., 60 minutes, Tris-HCl pH 8.0, triplicate
[10] = test system: enzymatic activity in urine from patients with pancreas cancer; assay: Selectivity of the cleavage: urine, pancreas cancer; settings: samples from patients with pancreas cancer, mixture of 20 samples
Text: as §1, §2, §3

[11] = test system: enzymatic activity in urine from a person diagnosed with uterine body cancer; assay: RP HPLC analysis of substrate cleavage in urine from a person with uterine body cancer; settings: randomly selected urine from a person diagnosed with uterine body cancer
[12] = test system: enzymatic activity in urine from patients with prostate cancer; assay: Selectivity of the cleavage: urine, prostate cancer; settings: samples from patients with prostate cancer, mixture of 20 samples
Text: as §1, §2, §3

dependence of the hydrolysis of the substrate on the reaction pH [2]: maximum activity at alkaline pH
Substance: ABZ-Pro-Arg-Thr-Ile-ANB-NH2 ([2Abz]PRTI-{Benzoyl(5-NH,2-NO2)-NH2})
cleavage of the substrate / increase in absorbance [1]: is not subject to cleavage | cleavage of the substrate / increase in absorbance [3]: is not subject to cleavage | cleavage of the substrate / increase in absorbance [4]: is not subject to cleavage | colour intensity of the solution (absorbance) over time ([5]; all urine samples from persons diagnosed with uterine body cancer (T1-T20)): increased with time | Results of absorbance analysis (rate of hydrolysis of the substrate) ([5]; urine sample T1, uterine body cancer): 0.0066 and 0.006 and 0.0065 | Results of absorbance analysis (rate of hydrolysis of the substrate) ([5]; urine sample T2, uterine body cancer): 0.052 and 0.042 and 0.051 | Results of absorbance analysis (rate of hydrolysis of the substrate) ([5]; urine sample T3, uterine body cancer): 0.0087 and 0.0088 and 0.0086 | Results of absorbance analysis (rate of hydrolysis of the substrate) ([5]; urine sample T4, uterine body cancer): 0.0069 and 0.0051 and 0.0067 | Results of absorbance analysis (rate of hydrolysis of the substrate) ([5]; urine sample T5, uterine body cancer): 0.044 and 0.038 and 0.042 | Results of absorbance analysis (rate of hydrolysis of the substrate) ([5]; urine sample T6, uterine body cancer): 0.037 and 0.022 and 0.028 | Results of absorbance analysis (rate of hydrolysis of the substrate) ([5]; urine sample T8, uterine body cancer): 0.014 and 0.022 and 0.015 | Results of absorbance analysis (rate of hydrolysis of the substrate) ([5]; urine sample T9, uterine body cancer): 0.0088 and 0.0101 and 0.0092 | Results of absorbance analysis (rate of hydrolysis of the substrate) ([5]; urine sample T10, uterine body cancer): 0.009 and 0.0093 and 0.0085 | Results of absorbance analysis (rate of hydrolysis of the substrate) ([5]; urine sample T11, uterine body cancer): 0.0123 and 0.0112 and 0.0145 | Results of absorbance analysis (rate of hydrolysis of the substrate) ([5]; urine sample T12, uterine body cancer): 0.0216 and 0.021 and 0.0199 | Results of absorbance analysis (rate of hydrolysis of the substrate) ([5]; urine sample T13, uterine body cancer): 0.0045 and 0.0052 and 0.0048 | Results of absorbance analysis (rate of hydrolysis of the substrate) ([5]; urine sample T14, uterine body cancer): 0.005 and 0.0061 and 0.0058 | Results of absorbance analysis (rate of hydrolysis of the substrate) ([5]; urine sample T15, uterine body cancer): 0.0017 and 0.0015 and 0.0021 | Results of absorbance analysis (rate of hydrolysis of the substrate) ([5]; urine sample T16, uterine body cancer): 0.0079 and 0.0084 and 0.0072 | Results of absorbance analysis (rate of hydrolysis of the substrate) ([5]; urine sample T18, uterine body cancer): 0.0073 and 0.0068 and 0.0075 | Results of absorbance analysis (rate of hydrolysis of the substrate) ([5]; urine sample T19, uterine body cancer): 0.055 and 0.051 and 0.048 | Results of absorbance analysis (rate of hydrolysis of the substrate) ([5]; urine sample T20, uterine body cancer): 0.0077 and 0.0075 and 0.0081 | cleavage of the substrate / increase in absorbance [6]: is not subject to cleavage | cleavage of the substrate / increase in absorbance [7]: is not subject to cleavage | cleavage of the substrate / increase in absorbance [8]: is not subject to cleavage | increase in absorbance within the diagnostic range ([9]; 20 urine samples from healthy subjects): no increase in absorbance | Results of absorbance analysis (rate of hydrolysis of the substrate) ([9]; urine sample 21, healthy subject): 0.000000 | Results of absorbance analysis (rate of hydrolysis of the substrate) ([9]; urine sample 22, healthy subject): 0.000000 | Results of absorbance analysis (rate of hydrolysis of the substrate) ([9]; urine sample 23, healthy subject): 0.000000 | Results of absorbance analysis (rate of hydrolysis of the substrate) ([9]; urine sample 24, healthy subject): 0.000000 | Results of absorbance analysis (rate of hydrolysis of the substrate) ([9]; urine sample 25, healthy subject): 0.000000 | Results of absorbance analysis (rate of hydrolysis of the substrate) ([9]; urine sample 26, healthy subject): 0.000000 | Results of absorbance analysis (rate of hydrolysis of the substrate) ([9]; urine sample 27, healthy subject): 0.000000 | Results of absorbance analysis (rate of hydrolysis of the substrate) ([9]; urine sample 28, healthy subject): 0.000000 | Results of absorbance analysis (rate of hydrolysis of the substrate) ([9]; urine sample 29, healthy subject): 0.000000 | Results of absorbance analysis (rate of hydrolysis of the substrate) ([9]; urine sample 30, healthy subject): 0.000000 | Results of absorbance analysis (rate of hydrolysis of the substrate) ([9]; urine sample 31, healthy subject): 0.000000 | Results of absorbance analysis (rate of hydrolysis of the substrate) ([9]; urine sample 32, healthy subject): 0.000000 | Results of absorbance analysis (rate of hydrolysis of the substrate) ([9]; urine sample 33, healthy subject): 0.000000 | Results of absorbance analysis (rate of hydrolysis of the substrate) ([9]; urine sample 34, healthy subject): 0.000000 | Results of absorbance analysis (rate of hydrolysis of the substrate) ([9]; urine sample 35, healthy subject): 0.000000 | Results of absorbance analysis (rate of hydrolysis of the substrate) ([9]; urine sample 36, healthy subject): 0.000000 | Results of absorbance analysis (rate of hydrolysis of the substrate) ([9]; urine sample 37, healthy subject): 0.000000 | Results of absorbance analysis (rate of hydrolysis of the substrate) ([9]; urine sample 38, healthy subject): 0.000000 | Results of absorbance analysis (rate of hydrolysis of the substrate) ([9]; urine sample 39, healthy subject): 0.000000 | Results of absorbance analysis (rate of hydrolysis of the substrate) ([9]; urine sample 40, healthy subject): 0.000000 | cleavage of the substrate / increase in absorbance [10]: is not subject to cleavage | cleavage products of the substrate (RP HPLC) [11]: cleaves into the peptide fragment ABZ-Pro-Arg-Thr-Ile-OH and the chromophore group of the compound (ANB-NH2) | cleavage of the substrate / increase in absorbance [12]: is not subject to cleavage
